Where only a bound is given, the exact number is not on record here.

Here are results for 16 molecules from patent US20260265256A1 (IMPACT THERAPEUTICS (SHANGHAI), INC., priority 2023, published 2026).

In test [1] the test system is MDA-MB-436 cells. In words: Growth inhibition assay against BRCA mutant human breast cancer MDA-MB-436 cell line (CCK-8, 7 days). The settings on record: 168 h, MDA-MB-436, 7 days, read-out: IC50 (nM), proliferation of human breast cancer cells MDA-MB-436. The format is cell-based. As to the method: The cells were cultured in complete medium (DMEM medium+10% FBS+Insulin+glutathione). When the confluence reached about 80%, cells were digested and gently dispensed from the bottom of the dish with a 1 mL pipette. Cell suspension was collected and centrifuged at 500 rpm for 3 min. The supernatant was discarded, and the cell pellet were re-suspended in complete medium. The cells were seeded into a culture dish at an appropriate proportion, and then cultured in a 5% CO2 incubator at 37° C. The assay was carried out when the cells were in optimum condition and the confluence was reached 80%. Cells in the logarithmic growth phase were taken to centrifugate, and the culture supernatant was removed. The cells were resuspended in refresh complete medium and counted. The resuspended cells were seeded at 3000/well in a 96-well plate and incubated at 37° C., 5% CO2 incubator overnight. […] The solution was mixed by oscillation. 0.10% DMSO was used as the control.
The next day, the 96-well plate inoculated with cells was taken out from the incubator, and the culture supernatant was removed. Then fresh medium of 195 uL/well and 5 μL/well of 40× test compound solution as mentioned above were added into the 96 well plate, respectively. Finally, the plate was incubated for 7 days in a 37° C. 5% CO2 incubator. The medium containing compound was changed on the fourth day. After 7 days, 20 μL of CCK-8 was added to each well and shaken gently, then was cultured for 4 hours. The plate was shaken for 5 min after incubation, the absorbance values of 450 nm or 650 nm wavelengths were recorded respectively (OD=absorbance value of 450 nm−absorbance value of 650 nm) by using the multifunction readout instrument.
Data were analyzed by software GraphPad Prism 6.0. The inhibitory activity of compounds on cell proliferation was plotted using cell survival rate against the compound concentration as coordinates. Cell survival rate %=(ODcompound−ODbackground)/(ODDMSO−ODbackground)×100.
Table 2 summarizes the inhibitory effect data (IC50) of the compounds on the proliferation of human breast cancer cells MDA-MB-436.

Test [2] concerns the target T1, PDE3A (Homo sapiens, UniProt Q14432).
T1 construct: purchased Sino Biological 11908-H20B1
In words: PDE3A fluorescence polarization (FP) assay. The format is biochemical. The conditions noted are these: 2 nM PDE3A, 0.2 μM FAM-cAMP, read-out: IC50 (μM), PDE3A enzyme activity. As to the method:
A PDE3A fluorescence polarization (FP) assay in a multi-step format was performed using black, round bottom 384-well plates (Corning, 4514). The testing compounds were serially diluted from stock solutions to 11 concentrations with a 3-fold dilution factor using DMSO. Fifty nL of compound dilutions was mixed with 5 μL of reaction buffer (10 mM Tris-HCl, pH 7.2, 10 mM MgCl2, 0.05% NaN3, 0.1% phosphate-free BSA) containing 0.2 μM FAM-cAMP (BPS, 60200) and 2 nM PDE3A (Sino Biological, 11908-H20B1) enzyme, and incubated for 60 min at 25° C. Afterwards, 15 μL binding agent mixture (Molecular Devices, R8124) was added to each well and the plate was incubated for 60 min at 25° C. The plate was loaded to a BMG PHERAstar FSX to read Fluorescence Polarization (FP) values at a setting of: Ex: 485 nm and Em: 520 nm. Emission light intensity with polarizers parallel (Em|) and emission light intensity with polarizers perpendicular (Em⊥) were recorded. The Polarization (mP) values were calculated using the following formula: mP=(SignalEm|−SignalEm⊥)/(SignalEm|+SignalEm⊥).
Data analysis: • 1) The inhibition % of a compound dose is calculated as:
[formula] • wherein mPMin and mPMax refer to the polarization readings in the condition of substrate only and substrate+enzyme, respectively. • 2) The IC50 values were calculated from non-linear curve fitting using following regression equation using a commercial curve fitting software GraphPad Prism 9.2.0.
wherein X refers to Log of compound concentration and Y refers to % Inhibition.
Table 3 summarize the inhibitory effects of compounds on PDE3A enzyme activity (IC50).

For test [3], the target named is recombinant poly(ADP-ribose) polymerase 2 (PARP2) (Homo sapiens, UniProt Q9UGN5). Kind of test: PARP2 chemiluminescent assay. The test is classed as biochemical. The conditions noted are these: PARP2 enzyme activity, chemiluminescence, 40 ng enzyme/well. Here is the method:
The solution of recombinant poly(ADP-ribose) polymerase 1 and 2 (PARP1 and PARP2) (40 ng enzyme/well) and the compounds to be tested were mixed, respectively. The solutions were added to a 96-well plate coated with histone mixture, incubated at room temperature for 1 h, then 50 μL 0.3 ng/mL Streptavidin-HRP was added to each well. The plates were incubated for 30 minutes at room temperature. Finally, the plates were treated with streptavidin-HRP followed by addition of the ELISA ECL substrate to produce chemiluminescence that can be measured using a chemiluminescence reader. Inhibition of the tested compound to PARP1/2 enzyme activity was calculated according to the following formula. [formula] IC50 value is obtained by fitting the s-shaped dose response curve equation by using XL Fit software.

T1 sequence (Q14432 669-1141 limits assumed): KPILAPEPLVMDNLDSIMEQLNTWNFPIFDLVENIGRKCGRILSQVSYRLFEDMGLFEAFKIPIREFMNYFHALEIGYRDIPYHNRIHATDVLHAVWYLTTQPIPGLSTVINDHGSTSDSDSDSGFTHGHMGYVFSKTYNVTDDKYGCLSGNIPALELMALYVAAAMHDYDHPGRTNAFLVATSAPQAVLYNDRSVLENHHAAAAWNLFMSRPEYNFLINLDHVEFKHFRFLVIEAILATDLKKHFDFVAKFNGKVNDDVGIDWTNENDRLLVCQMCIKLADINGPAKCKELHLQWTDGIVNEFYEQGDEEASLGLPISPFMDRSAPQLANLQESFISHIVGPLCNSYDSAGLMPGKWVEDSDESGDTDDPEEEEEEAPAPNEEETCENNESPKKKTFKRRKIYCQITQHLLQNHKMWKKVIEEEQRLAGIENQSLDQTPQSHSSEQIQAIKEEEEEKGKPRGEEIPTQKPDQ
Sequence of recombinant poly(ADP-ribose) polymerase 2 (PARP2) (Q9UGN5 whole entry): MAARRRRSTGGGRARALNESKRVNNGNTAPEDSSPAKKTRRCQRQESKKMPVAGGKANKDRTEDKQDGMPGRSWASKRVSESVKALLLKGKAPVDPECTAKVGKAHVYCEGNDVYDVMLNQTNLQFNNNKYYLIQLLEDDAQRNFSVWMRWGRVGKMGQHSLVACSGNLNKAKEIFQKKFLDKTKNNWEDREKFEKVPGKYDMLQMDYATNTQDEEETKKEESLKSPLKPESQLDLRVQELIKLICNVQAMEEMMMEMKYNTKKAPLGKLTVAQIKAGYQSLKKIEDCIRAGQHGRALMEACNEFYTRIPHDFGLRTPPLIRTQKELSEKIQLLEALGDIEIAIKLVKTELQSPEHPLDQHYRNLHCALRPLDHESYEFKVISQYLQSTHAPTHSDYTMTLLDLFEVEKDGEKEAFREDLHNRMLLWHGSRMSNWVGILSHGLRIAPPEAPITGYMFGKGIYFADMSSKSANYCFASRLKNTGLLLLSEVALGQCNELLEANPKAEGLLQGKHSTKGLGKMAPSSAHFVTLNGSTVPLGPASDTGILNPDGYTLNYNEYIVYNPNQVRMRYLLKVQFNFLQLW

Turning to `CNC(=O)c1ccc(-n2cc3c(n2)CN(Cc2ccc4c([nH]c(=O)c5c(C)cnn54)c2F)C3)cn1` [Example 1-1, 5-(5-((6-fluoro-3-methyl-4-oxo-4,5-dihydropyrazolo[1,5-a]quinoxalin-7-yl)methyl)-5,6-dihydropyrrolo[3,4-c]pyrazol-2(4H)-yl)-N-methylpicolinamide], the IC50 in test [1] is 2.13 nM; in test [2], greater than 30 µM.

Regarding `Cc1cnn2c1c(=O)[nH]c1c(F)c(CN3Cc4cn(-c5ccc(C(=O)NC6CC6)nc5)nc4C3)ccc12` [Example 8, 5-(5-((6-fluoro-3-methyl-4-oxo-4,5-dihydropyrazolo[1,5-a]quinoxalin-7-yl)methyl)-5,6-dihydropyrrolo[3,4-c]pyrazol-2(4H)-yl)-N-cyclopropylpicolinamide], the IC50 in test [1] was 4.11 nM; in test [2], greater than 30 µM.

Take `CNC(=O)c1ccc(-n2cc3c(n2)CCN(Cc2ccc4c([nH]c(=O)c5c(C)cnn54)c2F)C3)c(C)n1` [Example 11, 5-(5-((6-fluoro-3-methyl-4-oxo-4,5-dihydropyrazolo[1,5-a]quinoxalin-7-yl)methyl)-4,5,6,7-tetrahydro-2H-pyrazolo[4,3-c]pyridin-2-yl)-N,6-dimethylpicolinamide]: the figures for the IC50 in test [1] and in test [2] were greater than 100 nM and greater than 30 µM, respectively.

For the molecule `CNC(=O)c1ccc(-n2cc3c(n2)CCN(Cc2ccc4c([nH]c(=O)c5c(C)cnn54)c2F)C3)c(F)n1` [Example 12, 5-(5-((6-fluoro-3-methyl-4-oxo-4,5-dihydropyrazolo[1,5-a]quinoxalin-7-yl)methyl)-4,5,6,7-tetrahydro-2H-pyrazolo[4,3-c]pyridin-2-yl)-6-fluoro-N-methylpicolinamide], the IC50 was greater than 100 nM in test [1] and greater than 30 µM in test [2].

`CNC(=O)c1ccc(-n2cc3c(n2)CN(Cc2ccc4c([nH]c(=O)c5c(F)cnn54)c2F)C3)c(C)n1` [Example 14, 5-(5-((3,6-difluoro-4-oxo-4,5-dihydropyrazolo[1,5-a]quinoxalin-7-yl)methyl)-5,6-dihydropyrrolo[3,4-c]pyrazol-2(4H)-yl)-N,6-dimethylpicolinamide]: the IC50 in test [1] is 5.06 nM; in test [2], greater than 30 µM.

With `CCNC(=O)c1ccc(-n2cc3c(n2)CN(Cc2ccc4c([nH]c(=O)c5c(F)cnn54)c2F)C3)cn1` [Example 18, 5-(5-((3,6-difluoro-4-oxo-4,5-dihydropyrazolo[1,5-a]quinoxalin-7-yl)methyl)-5,6-dihydropyrrolo[3,4-c]pyrazol-2(4H)-yl)-N-ethylpicolinamide], the values for the IC50 in test [1] and in test [2] were 0.59 nM and greater than 30 µM, respectively.

As for `CNC(=O)c1ccc(-n2cc3c(n2)CN(Cc2ccc4c([nH]c(=O)c5c(C(F)(F)F)cnn54)c2F)C3)c(F)n1` [Example 26, 5-(5-((6-fluoro-4-oxo-3-(trifluoromethyl)-4,5-dihydropyrazolo[1,5-a]quinoxalin-7-yl)methyl)-5,6-dihydropyrrolo[3,4-c]pyrazol-2(4H)-yl)-6-fluoro-N-methylpicolinamide], the IC50 in test [3] worked out at 64 nM; in test [1], 13 nM.

For the molecule `CNC(=O)c1ccc(-n2cc3c(n2)CN(Cc2ccc4c([nH]c(=O)c5cc(F)nn54)c2F)C3)cn1` [Example 27, 5-(5-((2,6-difluoro-4-oxo-4,5-dihydropyrazolo[1,5-a]quinoxalin-7-yl)methyl)-5,6-dihydropyrrolo[3,4-c]pyrazol-2(4H)-yl)-N-methylpicolinamide], the IC50 was 1.44 nM in test [1] and greater than 30 µM in test [2].

In the case of `CNC(=O)c1ccc(-c2nc3c([nH]2)CN(Cc2ccc4c([nH]c(=O)c5c(C)cnn54)c2F)C3)cn1` [Example 34, 5-(5-((6-fluoro-3-methyl-4-oxo-4,5-dihydropyrazolo[1,5-a]quinoxalin-7-yl)methyl)-1,4,5,6-tetrahydropyrrolo[3,4-d]imidazol-2-yl)-N-methylpicolinamide], the IC50 in test [3] is 40 nM; in test [1], 3.33 nM.

Take `CNC(=O)c1ccc(-c2nc3c(o2)CN(Cc2ccc4c([nH]c(=O)c5c(F)cnn54)c2F)C3)cn1` [Example 41, 5-(5-((3,6-difluoro-4-oxo-4,5-dihydropyrazolo[1,5-a]quinoxalin-7-yl)methyl)-5,6-dihydro-4H-pyrrolo[3,4-d]oxazol-2-yl)-N-methylpicolinamide]: the IC50 was determined as 61.1 nM in test [3] and 1.6 nM in test [1].

In the case of `CNC(=O)c1ccc(-c2nc3c([nH]2)CN(Cc2ccc4c([nH]c(=O)c5c(F)cnn54)c2F)C3)cn1` [Example 43, 5-(5-((3,6-difluoro-4-oxo-4,5-dihydropyrazolo[1,5-a]quinoxalin-7-yl)methyl)-1,4,5,6-tetrahydropyrrolo[3,4-d]imidazol-2-yl)-N-methylpicolinamide], the IC50 in test [3] was found to be 5.18 nM; in test [1] it was 2.84 nM.

On to `CCNC(=O)c1ccc(-n2cc3c(n2)CN(Cc2ccc4c([nH]c(=O)n5cc(C)nc45)c2F)C3)cn1` [Example 50, N-ethyl-5-(5-((7-fluoro-2-methyl-5-oxo-5,6-dihydroimidazo[1,2-c]quinazolin-8-yl)methyl)-5,6-dihydropyrrolo[3,4-c]pyrazol-2(4H)-yl)picolinamide], for which the values for the IC50 in test [3] and in test [1] were 180 nM and 1.01 nM, respectively.

For `CCNC(=O)c1ccc(-n2cc3c(n2)CN(Cc2ccc4c([nH]c(=O)c5occc54)c2F)C3)cn1` [Example 53, N-ethyl-5-(5-((6-fluoro-4-oxo-4,5-dihydrofuro[2,3-c]quinolin-7-yl)methyl)-5,6-dihydropyrrolo[3,4-c]pyrazol-2(4H)-yl)picolinamide], the IC50 in test [3] worked out at 157 nM; in test [1], 1.21 nM.

In the case of `CNC(=O)c1ccc(-n2cc3c(n2)CN(Cc2ccc4c([nH]c(=O)c5cc(F)nn54)c2F)C3)c(F)n1` [Example 56, 5-(5-((2,6-difluoro-4-oxo-4,5-dihydropyrazolo[1,5-a]quinoxalin-7-yl)methyl)-5,6-dihydropyrrolo[3,4-c]pyrazol-2(4H)-yl)-6-fluoro-N-methylpicolinamide], the IC50 in test [3] was determined as 2760 nM; in test [1], 4.66 nM.

On to `CNC(=O)c1ccc(-n2cc3c(c2)CN(Cc2ccc4c([nH]c(=O)c5c(F)cnn54)c2F)C3)c(F)n1` [Example 62, 5-(5-((3,6-difluoro-4-oxo-4,5-dihydropyrazolo[1,5-a]quinoxalin-7-yl)methyl)-5,6-dihydropyrrolo[3,4-c]pyrrol-2(4H)-yl)-6-fluoro-N-methylpicolinamide], for which the IC50 in test [3] amounted to 278 nM; in test [1], 0.44 nM.

Turning to `CNC(=O)c1ccc(-n2cc3c(c2)CN(Cc2ccc4c([nH]c(=O)c5c(C)cnn54)c2F)C3)c(F)n1` [Example 63, 6-fluoro-5-(5-((6-fluoro-3-methyl-4-oxo-4,5-dihydropyrazolo[1,5-a]quinoxalin-7-yl)methyl)-5,6-dihydropyrrolo[3,4-c]pyrrol-2(4H)-yl)-N-methylpicolinamide], the IC50 in test [3] is greater than 10000 nM; in test [1], 0.85 nM.
